Drawing on PubChem BioAssay (NCI), this text covers GI50 and TGI for nine molecules.

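Dose response: 5 concentrations. Exposure: 48 h. Format: 96-well plates. Endpoint: linear interpolation; highest concentration if not reached. GI50 is the concentration that inhibits growth by half. The concentration for full growth arrest is given as TGI.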 A value given as a limit tells only on which side of the number the result lay.

Among the test systems are K-562 leukemia; PC-3 prostate; HOP-92 NSCLC; SW-620 colon; HCT-116 colon; HL-60(TB) leukemia; MDA-MB-231 breast; SF-295 CNS; UO-31 renal; COLO 205 colon.
Common to all, as to assay: inhibition of tumour cell growth, NCI panel, 48 h

Consider `CC/C=C\C[C@H]1C/C=C2/C(=O)C=C[C@@H]2C/C=C\CCCC(=O)O1`, for which the GI50 in the assay on K-562 leukemia is 353 nM; in the assay on PC-3 prostate, 1310 nM; in the assay on HOP-92 NSCLC it was 2340 nM; in the assay on SW-620 colon, 454 nM; in the assay on HCT-116 colon, 218 nM; in the assay with HL-60(TB) leukemia, 439 nM. Also, the GI50 with MDA-MB-231 breast was 2760 nM; in the assay with SF-295 CNS, 2170 nM; with UO-31 renal it was 1130 nM; in the assay with COLO 205 colon, 708 nM. In addition, the TGI in the assay with K-562 leukemia is more than 54500 nM; in the assay on PC-3 prostate it was 3730 nM; in the assay with HOP-92 NSCLC, 5930 nM; in the assay with SW-620 colon, 5520 nM; in the assay with HCT-116 colon, 511 nM; in the assay on HL-60(TB) leukemia it was 3300 nM. Moreover, the TGI in the assay on MDA-MB-231 breast came to 13200 nM; in the assay on SF-295 CNS, 5440 nM; in the assay on UO-31 renal it was 2480 nM; in the assay on COLO 205 colon, 2640 nM.
Turning to `O=C(O)C1C(Br)(c2ccccc2)C1(Br)c1ccccc1` (configuration not stated), the TGI with K-562 leukemia, in the assay with PC-3 prostate, with HOP-92 NSCLC, with SW-620 colon, in the assay on HCT-116 colon and with HL-60(TB) leukemia was more than 100000 nM throughout. The TGI in the assay on MDA-MB-231 breast is more than 100000 nM; with SF-295 CNS, more than 100000 nM; in the assay with UO-31 renal, 47200 nM; with COLO 205 colon, 37800 nM.
Turning to `ClCc1cccc(Cn2cnc3nc(Cl)nc(Cl)c32)c1`, the GI50 was 1480 nM in the assay on K-562 leukemia; 644 nM in the assay on PC-3 prostate; 1460 nM in the assay on HOP-92 NSCLC; 419 nM in the assay with SW-620 colon; 285 nM in the assay with HCT-116 colon; 1160 nM in the assay on HL-60(TB) leukemia. Further, the GI50 in the assay with MDA-MB-231 breast was 234 nM; in the assay on SF-295 CNS, 2020 nM; in the assay with UO-31 renal, 4430 nM; in the assay on COLO 205 colon, 1690 nM. Further, the TGI with K-562 leukemia worked out at 2950 nM; with PC-3 prostate, 2060 nM; in the assay with HOP-92 NSCLC, 2780 nM; with SW-620 colon, 1670 nM; with HCT-116 colon it was 731 nM; in the assay on HL-60(TB) leukemia it was 2380 nM. The TGI is 694 nM in the assay with MDA-MB-231 breast, 3780 nM with SF-295 CNS, 9100 nM in the assay with UO-31 renal and 4220 nM with COLO 205 colon.
Turning to `COc1cc(C(=O)c2cc(C)c3[nH]c4ccc(C)cc4c3c2C)cc(OC)c1OC`, the GI50 with K-562 leukemia, with PC-3 prostate, in the assay on HOP-92 NSCLC, with SW-620 colon, with HCT-116 colon and in the assay with HL-60(TB) leukemia was less than 10 nM throughout. Moreover, the GI50 in the assay with MDA-MB-231 breast, in the assay on SF-295 CNS, with UO-31 renal and in the assay with COLO 205 colon was less than 10 nM each time. Also, the TGI in the assay with K-562 leukemia was more than 100000 nM; with PC-3 prostate, more than 100000 nM; with HOP-92 NSCLC, 5860 nM; with SW-620 colon it was more than 100000 nM; in the assay on HL-60(TB) leukemia, less than 10 nM; with UO-31 renal, more than 100000 nM. Further, the TGI with COLO 205 colon amounted to 36.9 nM.
On to `CC1(C)[C@@H](OC(N)=O)[C@H]2O[C@H]2[C@]2(C=O)[C@H]3CC[C@]4(C)[C@@H](c5ccc(=O)oc5)[C@@H](Cl)C[C@]4(O)C3=CC[C@@H]12`, for which the GI50 was 6.98 nM in the assay on K-562 leukemia; 6.67 nM with PC-3 prostate; 6.16 nM with HOP-92 NSCLC; 5.29 nM with SW-620 colon; 4.35 nM in the assay on HCT-116 colon; 5.57 nM in the assay with HL-60(TB) leukemia. Moreover, the GI50 is 10.9 nM with MDA-MB-231 breast, 5.22 nM in the assay with SF-295 CNS, 5.72 nM in the assay with UO-31 renal and 7.31 nM in the assay with COLO 205 colon. Besides, the TGI with K-562 leukemia was found to be 25.3 nM; in the assay with PC-3 prostate it was 18.8 nM; with HOP-92 NSCLC it was 19.8 nM; with SW-620 colon, 11.5 nM; in the assay with HCT-116 colon, 8.53 nM; in the assay with HL-60(TB) leukemia, 13.1 nM. Also, the TGI in the assay with MDA-MB-231 breast turned out to be 55.6 nM; with SF-295 CNS, 11.8 nM; with UO-31 renal, 16.3 nM; with COLO 205 colon it was 19.9 nM.
For the molecule `COc1ccc(CC2NCCc3cc(OC)c(OC)cc32)cc1Br` (configuration not stated), the TGI in the assay on K-562 leukemia was 45600 nM; with PC-3 prostate, more than 100000 nM; with HOP-92 NSCLC, 61700 nM; with SW-620 colon, more than 70500 nM; in the assay on HCT-116 colon it was 36900 nM; with HL-60(TB) leukemia it was 28100 nM. In addition, the TGI in the assay with MDA-MB-231 breast was 57300 nM; with SF-295 CNS, 86700 nM; in the assay on UO-31 renal, more than 100000 nM; in the assay on COLO 205 colon, 32600 nM.
Turning to `ClCC[N+]12CC[N+](CCCl)(CC1)C2`, the TGI in the assay with K-562 leukemia, with PC-3 prostate, in the assay on HOP-92 NSCLC, in the assay on SW-620 colon, in the assay on HCT-116 colon and in the assay with HL-60(TB) leukemia was more than 100000 nM in each case. Further, the TGI with MDA-MB-231 breast, in the assay on SF-295 CNS, in the assay with UO-31 renal and in the assay with COLO 205 colon was more than 100000 nM each time.
Turning to `Cc1ccc2[nH]c(O)c(N=Nc3ccc(S(N)(=O)=O)cc3)c2c1`, the GI50 is 13800 nM in the assay on K-562 leukemia; 11900 nM in the assay on PC-3 prostate; more than 25000 nM in the assay with HOP-92 NSCLC; 10200 nM with SW-620 colon; 8870 nM with HCT-116 colon; more than 25000 nM in the assay on HL-60(TB) leukemia. Besides, the GI50 in the assay on MDA-MB-231 breast is more than 25000 nM; in the assay on SF-295 CNS it was more than 14900 nM; with UO-31 renal, 12700 nM; with COLO 205 colon, more than 24200 nM. Besides, the TGI in the assay on K-562 leukemia, with PC-3 prostate, in the assay with HOP-92 NSCLC, in the assay on SW-620 colon, in the assay on HCT-116 colon and in the assay with HL-60(TB) leukemia was more than 25000 nM in each case. Moreover, the TGI in the assay on MDA-MB-231 breast, in the assay with SF-295 CNS, in the assay on UO-31 renal and in the assay with COLO 205 colon was more than 25000 nM each time.
On to `CCn1c(-c2ccc(OC(C)=O)cc2)c(C)c2cc(OC(C)=O)ccc21`, for which the TGI in the assay on K-562 leukemia is 55300 nM; in the assay with PC-3 prostate, 44100 nM; with HOP-92 NSCLC, more than 100000 nM; in the assay on SW-620 colon, 82200 nM; in the assay on HCT-116 colon, 22100 nM; in the assay with HL-60(TB) leukemia, 42900 nM. Also, the TGI in the assay with MDA-MB-231 breast worked out at 38300 nM; in the assay on SF-295 CNS it was 96700 nM; in the assay with UO-31 renal it was 47900 nM; in the assay with COLO 205 colon, 47400 nM.
